Measurements published in paper PMC5656594 (Scientific Reports, 2017).

What was measured:
[1] = target: T1, IN^PFV-viral DNA interaction (Human spumaretrovirus, UniProt P14350); experiment: IN-viral DNA interaction by steady-state fluorescence anisotropy of Fl-DNA with increasing drug concentrations; assay type: binding, prototype foamy virus (PFV); details: 400 nM IN^PFV, 4 nM Fl-PFV^CAAT, 10 mM Mg2+, up to 20 µM drug; means INSTI did not prevent IN-DNA interactions
T1 construct: The full-length wt IN^PFV, the three single mutants of the catalytic triad; His; made in house; host or cells: E. coli BL21-CodonPlus (DE3)-RIPL
Protocol: Their incapability to prevent or disrupt IN-viral DNA complexes was consistently observed over the whole concentration range, regardless of the INSTI tested (Supplementary Fig. S7).
(§1) IN^PFV binding to DNA was measured by fluorescence anisotropy on a Beacon Instrument (Panvera, Madison, WI, USA) as previously described[25],[51], using a double-stranded 21-mer Fl-labeled DNA mimicking the PFV U5 LTR end also referred to as DNA#1 in Table 1 (labeled at the 5′-end of the reactive strand). IN binding to Fl-PFV^CAAT (or Fl-DNA#1) was compared to the binding to other DNA sequences (Fl-DNA#8 #9 #13). DNA annealing was obtained by mixing equimolar amounts of complementary strands in buffer A, heating to 85 °C for 5 min and slow cooling to 25 °C. DNA-binding experiments were performed at 25 °C in buffer A.
(§2) Figure S7. Differential effect of INSTI and INBI compounds on the INPFV-viral DNA interaction.
(§3) The formation of IN-DNA complexes was measured by steady-state fluorescence anisotropy using 400 nM INPFV and 4 nM Fl-PFVCAAT (also named Fl-DNA#1) in the presence of 10 mM Mg2+ and […]
(§4) In each plot, the starting r value (≈ 0.20) corresponds to the typical value found at saturating concentrations of IN (see Fig. S6).
(§5) The INBI compound FZ41, a member of the styrylquinoline family of inhibitors, was used as a control […]
(§6) show mean ± SD values from two independent experiments. […]

[2] = test system: IN; details: INSTIs; cited from earlier work
[3] = target: T2, wt IN^PFV (IN; WT) (Human spumaretrovirus, UniProt P14350); experiment: Inhibition of IN-viral DNA binding by steady-state fluorescence anisotropy of 4 nM Fl-PFV^CAAT with 400 nM IN, 10 mM Mg2+, 25 °C.; assay type: biochemical; details: n = 2; read-out: IC50 (IN-DNA interaction)
T2 construct: gene pol; full-length, His-tagged, expressed in E. coli BL21-CodonPlus (DE3)-RIPL
Protocol: as §2, §3, §4, §5, §6, §1

In the case of COc1cc2c(cc1Cc1cccc(Cl)c1F)c(=O)c(C(=O)O)cn2[C@H](CO)C(C)C [EVG, elvitegravir], the “r value of Fl-DNA (IN-DNA complex) on increasing INSTI concentration” value [1] is given as “remained constant” and the IC50 values [2] is given as “low-nanomolar range”.
For Cc1nnc(C(=O)NC(C)(C)c2nc(C(=O)NCc3ccc(F)cc3)c(O)c(=O)n2C)o1 [RAL, Raltegravir], the “r value of Fl-DNA (IN-DNA complex) on increasing INSTI concentration” value [1] is listed as “remained constant” and the IC50 values [2] is listed as “low-nanomolar range”.
In the case of COc1cc(/C=C/c2ccc3ccc(C(=O)O)c(O)c3n2)cc(O)c1O [FZ41, FZ41 (styrylquinoline family INBI compound)], the IC50 [3] is reported as roughly 800 nM.
